Measured values published in patent US12486489B2, “Culture medium for testing drug resistance of H.pylori as well as preparation method and use thereof” (priority 2022, dated 2025).
Like-named read-outs stand apart in the source and are kept apart here.

How the values were obtained:
[1] = tested on: H. pylori; assay: Drug resistance testing of laboratory strains on characteristic culture medium (discoloration after 36 hours); format: cell-based, Helicobacter pylori
Description: The characteristic culture media (A, B, C, D, E) are cultivated at a constant temperature of 37° C. for 36 hours in a three gas incubator. The characteristic culture media are removed and placed in a natural environment for 30 minutes to observe whether there are discolorations at the point of the culture medium where the specimen is dropped in. […] Another 100 μL of the specimen is taken and coated on Columbia solid culture medium and cultivated in a three gas incubator at a constant temperature of 37° C. for 3 days to 5 days. The number of colonies on the plate is counted to determine the initial inoculation amount. The micro dilution method is adopted to test the MIC of clinical specimen H. pylori, the test is meaningful only when there is no bacterial growth in the negative control well without bacteria and there is bacterial growth in the positive well with bacteria but without antibiotics. […] The results are recorded and whether the micro dilution method and characteristic culture medium are consistent with each other in evaluating the drug resistance of clinical H. pylori strains is compared. […]
(2) Inoculation of bacterial solution: 10 μL bacterial solution is taken and added dropwise onto a characteristic culture medium with 5 pieces (ABCDE) in total.
(3) Culture: all plates are moved to a three gas incubator and cultivated at 37° C. for 36 hours. After being taken out and placed in a natural environment for 30 minutes, whether the bacteria have resistance is determined based on the discoloration of the characteristic culture medium.

[2] = tested on: H. pylori; assay: Verification of resistance breakpoint: growth of laboratory strains on Columbia solid culture medium with added antibiotics, 72 hours; format: cell-based, Helicobacter pylori
Description: The plates are cooled and inverted for approximately 10 mL/piece, marked properly for the subsequent use.
(2) Preparation of bacterial solution: H. pylori grown in logarithmic phase on a solid plate is taken to prepare a bacterial suspension by using BHI. The concentration OD600 is adjusted to 0.3 (1×10^8 CFU/mL), diluted 10 times for the subsequent use.
(3) Inoculation of bacterial solution: 10 μL of bacterial solution is taken and added to Columbia culture medium and the results are determined after cultivating for 72 hours.
(4) Result determination: the minimum drug concentration for no growth of bacteria on the plate is the minimum inhibitory concentration of the bacteria against the drug.

[3] = tested on: H. pylori; settings: bacterial count 1×10^6 CFU/mL; cited from earlier work
[4] = tested on: clinical H. pylori strain; assay: MIC of clinical H. pylori strains by micro dilution method; format: cell-based; settings: Helicobacter pylori, 72 h
Description: (§1) The characteristic culture media (A, B, C, D, E) are cultivated at a constant temperature of 37° C. for 36 hours in a three gas incubator. The characteristic culture media are removed and placed in a natural environment for 30 minutes to observe whether there are discolorations at the point of the culture medium where the specimen is dropped in. […] Another 100 μL of the specimen is taken and coated on Columbia solid culture medium and cultivated in a three gas incubator at a constant temperature of 37° C. for 3 days to 5 days. The number of colonies on the plate is counted to determine the initial inoculation amount. The micro dilution method is adopted to test the MIC of clinical specimen H. pylori, the test is meaningful only when there is no bacterial growth in the negative control well without bacteria and there is bacterial growth in the positive well with bacteria but without antibiotics.
H. pylori single colony grown on Colombian culture medium is taken (which is confirmed as H. pylori by urease, oxidase, catalase, and PCR testing of CagA gene, as illustrated in FIG. 13) and the bacteria are increased. During the preparation of MIC plates and bacterial solution, H. pylori with logarithmic growth phase is taken to prepare a bacterial suspension by using BHI. The concentration OD600 is adjusted to 0.3 (1×10^8 CFU/mL, diluted 10 times, 10 μL is taken and added to wells 1-8 (with a bacterial solution concentration of approximately 1.0×10^6 CFU/mL per well, cultivated for 72 hours to determine the results.

[5] = tested on: clinical H. pylori strain; assay: Drug resistance testing of clinical specimens on characteristic culture medium (discoloration after 36 hours); format: cell-based, Helicobacter pylori
Description: as §1
(1) Transfer liquid preparation: after sterilization and cooling, BHI culture medium is added with 10% calf serum, followed by 30% glycerol to prepare H. pylori preservation solution. On this basis, 1% H. pylori selective additive is added to prepare the transfer liquid. 1 mL of transfer solution is taken into a sterile EP tube, and 6-8 sterilized small steel balls are poured into the EP tube for the subsequent use.
(3) Specimen acquisition: a biopsy tissue group is obtained from the gastric antrum and a small curvature side of the gastric body through a gastroscopy biopsy passage and placed into an EP tube (strictly sterile operation). The biopsy tissue is placed on the ice surface and transferred as soon as possible (within 2 hours) to complete the subsequent steps.
(4) Preparation of bacterial solution containing tissue: the EP tube containing tissue is placed in a homogenizer at 300 hz and crushed for 5 minutes, transferred to another EP, centrifuged at 12000 rpm for 2 minutes, the supernatant is discarded, BHI is resuspended to 200 μL, and a bacterial suspension is prepared for the subsequent use.
(5) Inoculation of bacterial solution: 10 μL of bacterial solution is taken and added dropwise to the characteristic culture medium (5 pieces in total). The characteristic culture medium is removed after cultivating in a three gas incubator at 37° C. for 36 hours, and the results are determined after leaving for 30 minutes; another 100 μL is taken and coated onto Colombian culture medium for the traditional bacterial culture.

For `CC[C@H]1OC(=O)[C@H](C)[C@@H](O[C@H]2C[C@@](C)(OC)[C@@H](O)[C@H](C)O2)[C@H](C)[C@@H](O[C@@H]2O[C@H](C)C[C@H](N(C)C)[C@H]2O)[C@](C)(OC)C[C@@H](C)C(=O)[C@H](C)[C@@H](O)[C@]1(C)O` [Clarithromycin, clarithromycin], which “drug resistance determined by discoloration of characteristic culture medium” value ([1]; strain 159, 1×10^6 CFU/mL) is on record?
The value was “developed resistance”.

What about the “drug resistance determined by discoloration of characteristic culture medium” value ([1]; strain 286, 1×10^6 CFU/mL) of the same molecule?
Its value is “have developed resistance”.

What about the “drug resistance determined by discoloration of characteristic culture medium” value ([1]; strain 287, 1×10^6 CFU/mL) of the same molecule?
The value was “have developed resistance”.

What about the “drug resistance determined by discoloration of characteristic culture medium” value ([1]; strain 289, 1×10^6 CFU/mL) of the same molecule?
The value was “have developed resistance”.

What about the “drug resistance determined by discoloration of characteristic culture medium” value ([1]; strain G27, 1×10^6 CFU/mL) of the same molecule?
The value was “does not develop resistance”.

And the “optimal concentration for adding antibiotics” value ([2]; conclusion of breakpoint verification)?
Its value is 0.5 µg/mL.

What about the “growth of sensitive strains” value ([2]; levofloxacin 0.5, clarithromycin 0.5, metronidazole 4, amoxicillin 0.5 μg/mL) of the same molecule?
Its value is “no sensitive strain grows”.

What about the growth of bacterial ([2]; strain 159, antibiotic 0.25 μg/mL) of the same molecule?
Its growth of bacterial is “+”.

What about the growth of bacterial ([2]; strain 159, antibiotic 0.5 μg/mL) of the same molecule?
The growth of bacterial was “+”.

And the growth of bacterial ([2]; strain 159, antibiotic 1 μg/mL)?
The growth of bacterial was “−”.

And the growth of bacterial ([2]; strain 161, antibiotic 0.25 μg/mL)?
The growth of bacterial was “+”.

And the growth of bacterial ([2]; strain 161, antibiotic 0.5 μg/mL)?
Its growth of bacterial is “+”.

And the growth of bacterial ([2]; strain 161, antibiotic 1 μg/mL)?
Its growth of bacterial is “−”.

And the growth of bacterial ([2]; strain 162, antibiotic 0.25 μg/mL)?
The growth of bacterial was “+”.

And the growth of bacterial ([2]; strain 162, antibiotic 0.5 μg/mL)?
The growth of bacterial was “+”.

What about the growth of bacterial ([2]; strain 162, antibiotic 1 μg/mL) of the same molecule?
The growth of bacterial was “−”.

What about the growth of bacterial ([2]; strain 163, antibiotic 0.25 μg/mL) of the same molecule?
The growth of bacterial was “−”.

What about the growth of bacterial ([2]; strain 163, antibiotic 0.5 μg/mL) of the same molecule?
Its growth of bacterial is “−”.

And the growth of bacterial ([2]; strain 163, antibiotic 1 μg/mL)?
The growth of bacterial was “−”.

What about the growth of bacterial ([2]; strain 286, antibiotic 0.25 μg/mL) of the same molecule?
The growth of bacterial was “+”.

What about the growth of bacterial ([2]; strain 286, antibiotic 0.5 μg/mL) of the same molecule?
The growth of bacterial was “+”.

What about the growth of bacterial ([2]; strain 286, antibiotic 1 μg/mL) of the same molecule?
The growth of bacterial was “−”.

What about the growth of bacterial ([2]; strain 287, antibiotic 0.25 μg/mL) of the same molecule?
Its growth of bacterial is “+”.

And the growth of bacterial ([2]; strain 287, antibiotic 0.5 μg/mL)?
Its growth of bacterial is “+”.

And the growth of bacterial ([2]; strain 287, antibiotic 1 μg/mL)?
The growth of bacterial was “−”.

What about the growth of bacterial ([2]; strain 289, antibiotic 0.25 μg/mL) of the same molecule?
Its growth of bacterial is “+”.

And the growth of bacterial ([2]; strain 289, antibiotic 0.5 μg/mL)?
The growth of bacterial was “+”.

And the growth of bacterial ([2]; strain 289, antibiotic 1 μg/mL)?
Its growth of bacterial is “+”.

What about the growth of bacterial ([2]; strain 290, antibiotic 0.25 μg/mL) of the same molecule?
Its growth of bacterial is “+”.

And the growth of bacterial ([2]; strain 290, antibiotic 0.5 μg/mL)?
Its growth of bacterial is “+”.

What about the growth of bacterial ([2]; strain 290, antibiotic 1 μg/mL) of the same molecule?
Its growth of bacterial is “−”.

And the growth of bacterial ([2]; strain 26695, antibiotic 0.25 μg/mL)?
Its growth of bacterial is “+”.

What about the growth of bacterial ([2]; strain 26695, antibiotic 0.5 μg/mL) of the same molecule?
Its growth of bacterial is “−”.

What about the growth of bacterial ([2]; strain 26695, antibiotic 1 μg/mL) of the same molecule?
Its growth of bacterial is “−”.

What about the growth of bacterial ([2]; strain G27, antibiotic 0.25 μg/mL) of the same molecule?
The growth of bacterial was “+”.

What about the growth of bacterial ([2]; strain G27, antibiotic 0.5 μg/mL) of the same molecule?
Its growth of bacterial is “−”.

What about the growth of bacterial ([2]; strain G27, antibiotic 1 μg/mL) of the same molecule?
Its growth of bacterial is “−”.

What about the “resistance breakpoints of H. pylori according to CLSI guidelines” value [3] of the same molecule?
The value was 2 µg/mL.

What about the MIC [4] of the same molecule?
The MIC was 0.125 µg/mL.

What about the MIC ([4]; clinical strain FY-31, approximately 1.0×10^6 CFU/mL per well, 72 hours, read-out: MIC) of the same molecule?
The MIC was 0.0625 µg/mL.

And the MIC ([4]; clinical strain FY-47, approximately 1.0×10^6 CFU/mL per well, 72 hours, read-out: MIC)?
Its MIC is 0.0625 µg/mL.

What about the MIC ([4]; clinical strain FY-52, approximately 1.0×10^6 CFU/mL per well, 72 hours, read-out: MIC) of the same molecule?
The MIC was 0.25 µg/mL.

And the “drug resistance determined on characteristic culture medium” value ([5]; clinical H. pylori strain FY-31)?
The value was “sensitive”.

And the “drug resistance determined on characteristic culture medium” value ([5]; clinical H. pylori strain FY-43)?
Its value is “sensitive”.

What about the “drug resistance determined on characteristic culture medium” value ([5]; clinical H. pylori strain FY-47) of the same molecule?
The value was “sensitive”.

And the “drug resistance determined on characteristic culture medium” value ([5]; clinical H. pylori strain FY-52)?
The value was “sensitive”.
